{"source": "patent US20160051665A1", "about": "“INDUCTION OF IMMUNE RESPONSE” (priority 2010, published 2016)", "key": {"[1]": {"test": "serum ALT, marker of hepatocellular injury, in woodchucks", "format": "in vivo, woodchuck", "procedure": "(§1) All experimental procedures involving woodchucks were performed under protocols approved by the Cornell University Institutional Animal Care and Use Committee. Woodchucks were born to WHV-negative females in environmentally controlled laboratory animal facilities and inoculated at 3 days of age with 5 million infectious doses of a standardized WHV inoculum (23). Woodchucks were selected as chronic WHV carriers based on persistent detection of WHV surface antigen (WHsAg) and WHV DNA in serum prior to treatments. All animals were free of HCC at the beginning of the study as determined by hepatic ultrasound examination and normal serum activity of γ-glutamyl-transferase (GGT).\nTwenty adult chronically infected woodchucks were stratified by age, sex, body weight, serum viral load, and serum GGT activity into four treatment groups of five animals each. Drug was administered orally at 100 mg/kg (in sterile water), chosen after an initial dose finding trial. […] Prior to alum adsorption, vaccine was tested in naïve, WHV-susceptible animals and no residual virus was detected. […]\n(§2) Serum WHV DNA was measured quantitatively by dot blot hybridization (assay sensitivity, ≧1.0×10^7 WHV genome equivalents per ml [WHVge/ml]) (25). Serum WHsAg, antibodies to WHV core antigen (anti-WHc), and WHV surface antigen (anti-WHs) were determined with WHV-specific enzyme immunoassays (26). […]"}, "[2]": {"system": "woodchuck PBMCs", "test": "PBMC proliferation assay (stimulation index) with PBMCs of treated woodchucks", "format": "in vivo", "procedure": "T cell responses against WHY were determined using in vitro stimulators at concentrations optimal for cultures of woodchuck PBMCs (29, 30). Stimulators consisted of native 22-nm WHsAg (2 μg/ml), recombinant WHcAg (2 μg/ml), or synthetic peptides (10 μg/ml) corresponding to either native viral sequences or predicted N-de-glycosylated sequences (Table 1, below).\nThe in vitro proliferation assay using woodchuck PBMCs labeled dividing cells with [2-^3H]adenine (Amersham Pharmacia Biotech, Inc., Arlington Heights, Ill.). Woodchuck PBMCs were isolated from whole blood and stimulated as described (30, 31). Counts per minute of triplicate PBMC cultures were averaged and expressed as a stimulation index (SI) by dividing the average sample counts per minute in the presence of the stimulator by that observed in the absence of stimulator (six replicates). A SI value of ≧3.1 was considered to represent a positive, specific T-cell response.\n(§3) Woodchucks chronically infected with WHV experienced significant immunological responses to envelope proteins following immunization with WHsAg-containing vaccines, especially in the context of low viral and antigen loads following treatment with an effective antiviral agent, 1-(2-fluoro-5-methyl-beta-L-arabinofuranosyl)-uracil (L-FMAU) (29, 35). […] Animals were scored as positive if cells proliferated above the cut-off value of 2: 3.1. […]"}, "[3]": {"system": "woodchuck hepatitis virus (WHV)", "test": "serum WHV DNA by dot blot hybridization in chronic WHV carrier woodchucks", "format": "in vivo", "settings": "for WHV DNA, Av(range): serum", "procedure": "as §1\n(§4) Twenty adult chronically infected woodchucks were stratified by age, sex, body weight, serum viral load, and serum GGT activity into four treatment groups of five animals each. Drug was administered orally at 100 mg/kg (in sterile water), chosen after an initial dose finding trial. […] The subunit vaccine consisted of 22-nm WHsAg particles, purified by zonal ultracentrifugation from serum of WHV7P1-infected WHV carriers (24), inactivated with formalin, and adsorbed onto alum. Prior to alum adsorption, vaccine was tested in naïve, WHV-susceptible animals and no residual virus was detected. Purified WHsAg was not pretreated with enzymes that remove preS sequences.\nBlood samples were obtained for WHV DNA analysis and serological testing while animals were under general anesthesia (ketamine 50 mg/kg and xylazine 5 mg/kg intramuscularly). Samples were taken prior to drug administration on the first day of treatment and at the indicated time points.\nSerum WHV DNA was measured quantitatively by dot blot hybridization (assay sensitivity, ≧1.0×10^7 WHV genome equivalents per ml [WHVge/ml]) (25). Serum WHsAg, antibodies to WHV core antigen (anti-WHc), and WHV surface antigen (anti-WHs) were determined with WHV-specific enzyme immunoassays (26). Serum biochemical measurements included serum GGT, alkaline phosphatase (ALP), and marker of hepatocellular injury alanine aminotransferase (ALT), aspartate aminotransferase (AST), and sorbitol dehydrogenase (SDH) (25).\nas §3, with “35). Since BuCas treatment might be expected to reduce the amount of MHBs in the circulation and/or alter its immunological profile, the response to BuCas administration along with WHsAg vaccine was investigated.” for “35).”"}, "[4]": {"test": "observation of woodchucks for drug-related toxicity", "format": "in vivo, woodchuck", "settings": "100 mg/kg orally, weighed bi-weekly, observed daily"}, "[5]": {"system": "WHV surface antigen (WHsAg)", "test": "serum WHsAg enzyme immunoassay in chronic WHV carrier woodchucks", "format": "in vivo, woodchuck", "settings": "for WHsAg, Av(range): serum", "procedure": "as §1\nas §4, with “sequences. […]” for “sequences.”\nas §2, §3"}, "[6]": {"system": "glucosidases", "test": "glycan analysis of serum: tri-glucosylated glycans (Glu3)", "format": "in vivo, woodchuck", "procedure": "Sample preparation for glycan analysis was performed essentially as described (27). HPLC separation was performed using the Waters Alliance HPLC system with a Waters fluorescence detector, and quantified using the Millenium Chromatography Manager (Waters Corporation, Milford, Mass.). Tri-glucosylated structures were identified by comparison to known standards (27, 28).\nIn vivo, levels of circulating glycoproteins with N-glycans bearing three terminal glucose residues reflect the extent of glucosidase inhibition (11). […] Note that BuCas-treated animals that were negative for tri-glucosylated glycans at the 10-week time point were positive at one or more other time points (data not shown). No tri-glucosylated glycans were detected in any drug-naïve animals (Table 2)."}, "[7]": {"settings": "chronic WHV carrier woodchucks, all times tested"}}, "note": "“Also recorded” adds a separate entry of the source.", "data": [{"smiles": "CCCC(=O)O[C@H]1CN2CC[C@H](O)[C@@H]2[C@@H](O)[C@H]1O", "note": "[BuCas, 6-O-butanoyl castanospermine]", "values": [{"measurement": "ALT, Av(range)", "setting": "[1]; week 0 (baseline)", "result": "7.4 (4-9) Units/L"}, {"measurement": "ALT, Av(range)", "setting": "[1]; week 10", "result": "15.6 (10-22) Units/L"}, {"measurement": "PBMC response to paired N-peptides versus D-peptides", "setting": "[2]; glycosylation sequons at amino acids 4 and 146, from week 8 on, FIG. 4", "result": "responded more strongly to D-peptides versus N-peptides"}, {"measurement": "PBMC proliferation in response to WHV HBs antigens", "setting": "[2]; positive if SI ≧3.1, FIG. 3", "result": "resulted in proliferation in response to WHV HBs antigens; also recorded: stimulated cellular immunity to viral antigen"}, {"measurement": "viremia, in words", "setting": "[3]; [7]", "result": "not altered significantly"}, {"measurement": "antiviral response in woodchucks", "setting": "[3]; drug treated chronic WHV carrier woodchucks", "result": "no detectable antiviral response"}, {"measurement": "WHV DNA, Av(range)", "setting": "[3]; week 0 (baseline), chronic WHV carrier woodchucks", "result": "2.7(.4-7.0) genome equivalents (×10^10)"}, {"measurement": "WHV DNA, Av(range)", "setting": "[3]; week 10 (4 weeks after first vaccination), UD = <E07 GE, detection limit of dot blot hybridization", "result": "1.9(.9-4.8) genome equivalents (×10^10)"}, {"measurement": "drug-related toxicity", "setting": "[4]", "result": "no evidence of drug-related toxicity was seen"}, {"measurement": "antigenemia, in words", "setting": "[5]; [7]", "result": "not altered significantly"}, {"measurement": "WHsAg, Av(range)", "setting": "[5]; week 0 (baseline)", "result": ".38(.28-.43) optical density units"}, {"measurement": "WHsAg, Av(range)", "setting": "[5]; week 10", "result": ".42(33-.52) optical density units"}, {"measurement": "glycan processing (tri-glucosylated glycans in sera), in words", "setting": "[6]; sera of treated woodchucks", "result": "impaired glycan processing"}, {"measurement": "Glu3, % (tri-glucosylated glycans in serum)", "setting": "[6]; week 10", "result": ".49 (0-.90) %"}]}]}
